Experimental data reported in PMC6255327, “Design of Antimicrobially Active Small Amphiphilic Peptide Dendrimers” (Molecules, 2009).
Where a name gives a salt, the structure may show the parent alone.

Key:
K. pneumoniae ATCC 13882 = assay type: cell-based, Klebsiella pneumoniae; conditions: ATCC 13882, 24 h
Description: (§1) Bacteria. Staphylococcus aureus ATCC 25923, Pseudomonas aeruginosa ATCC 27853, Escherichia coli ATCC 25922 and Staphylococcus aureus ATCC 43300 were cultivated on tryptone - soy agar (TSA; Oxoid). Klebsiella pneumoniaeATCC 13882, Bordetella bronchiseptica ATCC 4617, Acinetobacter baumannii ATCC 19606 were cultivated onto nutrient agar (Difco). Escherichia coli ATCC BAA-198 was cultivated on TSA with ceftazidime (10 µg/mL or 15.7 μM; Sigma). All strains were incubated during 24 hrs at 37 °C.
(§2) Medium. Mueller – Hinton Broth (Oxoid) was supplemented with cations: 12.5 mg Mg ^++/L and25 mg Ca^++/L. The pH of the medium after sterilization is between 7.2 and 7.4 [cation–adjusted Mueller – Hinton Broth” (CAMHB)].
(§3) Reference method. Broth microdilution susceptibility test was performed as described in […] reference method M7-A7 (2). A series of the twofold dendrimers dilutions in DMSO and twofold polymyxin B and penicillin G dilutions in CAMHB were diluted […] with CAMHB. Aliquots (95 µL) were dispensed into microdilution sterile plates (Mar-Four). Then, bacteria inoculum (5 µL) containing 5 × 10^4 CFU/mL were added. The final concentration of dendrimers ranged from 128 to 2 µg/mL [or 105 to 1.6 μM for an average molecular mass for 7 series (1213) and 61 to 0.9 μM for an average molecular mass for 10 series(2,103)], polymyxin B and penicillin G from 8 – 0.15 µg /mL (or 5.8 to 0.1 μM and 21.5 to 0.4 μM, respectively for polymyxin B and penicillin G), all in twofold dilution steps. The plates were incubated at 35 °C and read after 18 or 24 hours depending on bacterial strain. MICs (Minimal Inhibitory Concentration) was defined as the lowest drug concentration that reduced growth by 100%.

C. krusei ATCC 6258 = test: microbe, parasite or virus in culture; assay type: cell-based, Candida krusei; conditions: ATCC 6258, 48 h, pH 7; read-out: Minimal inhibitory concentration (MIC)
Description: (§4) Yeasts: Candida albicans ATCC 90028, Candida parapsilosis ATCC 22019 and Candida krusei ATCC 6258 were cultivated onto Sabouraud dextrose agar (Difco) during 24 hrs at 35 °C.
(§5) Medium: RPMI – 1640 (Sigma) supplemented with 0.2% (wt/vol) glucose, 0.3 g/L L-glutamine, 0.0053 g/L phenol red, buffered with morpholinopropanesulfonic acid (MOPS; Sigma) at a final concentration of 0.165 M and adjusted to pH 7.0 was prepared.
(§6) Reference Method: The broth microdilution susceptibility test was performed as described in Clinical and Laboratory Standards Institute (CLSI) reference method M27 – A2 (1). A series of the twofold dendrimers and amphotericin B dilutions in DMSO were diluted 1:49 with RPMI.

S. aureus ATCC 43300 = assay type: cell-based, Staphylococcus aureus; conditions: ATCC 43300, 24 h
Description: as §1, §2, §3

P. aeruginosa ATCC 27853 = assay type: cell-based, Pseudomonas aeruginosa; conditions: ATCC 27853, 24 h
Description: as §1, §2, §3

[1] = tested on: B. bronchiseptica ATCC 4617; assay type: cell-based, Bordetella bronchiseptica; conditions: ATCC 4617, 24 h
Description: as §1, §2, §3

S. aureus ATCC 25923 = test: microbe, parasite or virus in culture; assay type: cell-based, Staphylococcus aureus; conditions: ATCC 25923, 24 h, pH 7.2; read-out: Minimal inhibitory concentration (MIC)
Description: as §1, §2, §3

[2] = tested on: C. parapsilosis ATCC 22019; assay type: cell-based, Candida parapsilosis; conditions: ATCC 22019, 48 h, pH 7
Description: as §4, §5, §6

C. albicans ATCC 90028 = assay type: cell-based, Candida albicans; conditions: ATCC 90028, 48 h, pH 7
Description: as §4, §5, §6

E. coli ATCC BAA-198 = assay type: cell-based, Escherichia coli; conditions: ATCC BAA-198, 24 h
Description: as §1, §2, §3

E.coli ATCC 25922 = assay type: cell-based, Escherichia coli; conditions: ATCC 25922, 24 h
Description: as §1, §2, §3

A. baumani ATCC 19606 = assay type: cell-based, Acinetobacter baumannii; conditions: ATCC 19606, 24 h
Description: as §1, §2, §3

human red blood cells = test: Hemolysis assay; assay type: cell-based; conditions: at a concentration of 400 μM, 1% hematocrit in PBS pH 7.4, 30 min at 23 °C, absorbance at 540 nm
Description: Dendrimer induced hemolysis was observed as previously reported. Briefly, serum free human red blood cells obtained from the Institute of Hematology and Transfusion Medicine in Warsaw, were suspended in phosphate buffered saline (PBS, pH 7.4). Prepared suspension of 1% hematocrit was incubated with serial concentration of dendrimers for 30 min at 23 °C. After centrifugation (1,000 rpm, 5 min) the absorbance of supernatant was measured at 540 nm (Jasco 630, Japan). A value of 100% hemolysis was determined by incubation of erythrocytes with double-distilled water (30 min at 23^o). In a control experiment, cells were incubated in buffer without peptide and absorbance at 540 nm value was used as a blank.
A - absorbance of the samples incubated with dendrimers; Ab – absorbance of the blank samples; A100% - absorbance of the reference; Ac - absorbance of red blood cells in PBS, hematocrit 1%.

Minimal inhibitory concentration (MIC) (K. pneumoniae ATCC 13882) | MIC (C. krusei ATCC 6258) | Minimal inhibitory concentration (MIC) (S. aureus ATCC 43300) | Minimal inhibitory concentration (MIC) (P. aeruginosa ATCC 27853) | Minimal inhibitory concentration (MIC) [1] | MIC (S. aureus ATCC 25923) | Minimal inhibitory concentration (MIC) [2] | Minimal inhibitory concentration (MIC) (C. albicans ATCC 90028) | Minimal inhibitory concentration (MIC) (E. coli ATCC BAA-198) | Minimal inhibitory concentration (MIC) (E.coli ATCC 25922) | Minimal inhibitory concentration (MIC) (A. baumani ATCC 19606) | Structure (SMILES) | toxicity (hemolysis) (human red blood cells)
54 µM | 27.3 µM | 13.6 µM | 54 µM | 6.8 µM | 27.2 µM | 54 µM | 54 µM | 13.6 µM | 27.3 µM | 27.3 µM | NCCCC[C@H](NC(=O)OCc1ccccc1Cl)C(=O)N[C@@H](Cc1ccccc1)C(=O)NCCCN(CCCNC(=O)[C@H](Cc1ccccc1)NC(=O)[C@H](CCCCN)NC(=O)OCc1ccccc1Cl)CCC[C@@H](CO)N(CCCNC(=O)[C@H](Cc1ccccc1)NC(=O)[C@H](CCCCN)NC(=O)OCc1ccccc1Cl)CCCNC(=O)[C@H](Cc1ccccc1)NC(=O)[C@H](CCCCN)NC(=O)OCc1ccccc1Cl [Compound 10c, N,N',N,N’-tetrakis[(N^α-2-chlorobenzyloxycarbonyl)-L-lysil-L-phenylalanyl-3-aminopropyl]-L-α,δ-diaminopentanol hexahydrochloride] | 
>89 µM | 44 µM | 11.8 µM | 24.3 µM | 11 µM | 2.8 µM | 88 µM | >88 µM | >88 µM | 11.8 µM | >89 µM | NCCCC[C@H](NC(=O)OCc1ccccc1Cl)C(=O)NCCCN[C@@H](CN(CCCNC(=O)[C@H](CCCCN)NC(=O)OCc1ccccc1Cl)CCCNC(=O)[C@H](CCCCN)NC(=O)OCc1ccccc1Cl)C(=O)NCc1ccccc1 [Compound 7e, N,N,N’-tris[(N^α-2-chlorobenzyloxycarbonyl)-L-lysil-3-aminopropyl]-L-diaminoalanine benzylamide pentahydrochloride] | 

Structure (SMILES) | Minimal inhibitory concentration (MIC) (K. pneumoniae ATCC 13882) | MIC (C. krusei ATCC 6258) | Minimal inhibitory concentration (MIC) (S. aureus ATCC 43300) | Minimal inhibitory concentration (MIC) (P. aeruginosa ATCC 27853) | Minimal inhibitory concentration (MIC) [1] | MIC (S. aureus ATCC 25923) | Minimal inhibitory concentration (MIC) [2] | Minimal inhibitory concentration (MIC) (C. albicans ATCC 90028) | Minimal inhibitory concentration (MIC) (E. coli ATCC BAA-198) | Minimal inhibitory concentration (MIC) (E.coli ATCC 25922) | Minimal inhibitory concentration (MIC) (A. baumani ATCC 19606) | toxicity (hemolysis) (human red blood cells)
NCCCC[C@H](NC(=O)OCc1ccccc1Cl)C(=O)NCCCN[C@@H](CCCN(CCCNC(=O)[C@H](CCCCN)NC(=O)OCc1ccccc1Cl)CCCNC(=O)[C@H](CCCCN)NC(=O)OCc1ccccc1Cl)C(=O)NCc1ccccc1 [Compound 7g, N,N,N’-tris[(N^α-2-chlorobenzyloxycarbonyl)-L-lysil-3-aminopropyl]-L-ornithine benzylamide penta-hydrochloride] | 87 µM | 5.4 µM | 10.9 µM | 21.8 µM | 2.7 µM | 10.9 µM | 5.4 µM | 10.9 µM | 10.9 µM | 21.8 µM | 5.4 µM | 32%
